How the values were obtained:
SK-CO-1 cells = assay: SK-CO-1 CTG proliferation assay (120 h) (CRC, G12V); format: cell-based; settings: Homo sapiens; SK-CO-1 cells (CRC, G12V), CTG 120 h
Experimental: SK-CO-1 CTG Proliferation Assay (120 h) (CRC, G12V)
SK-CO-1 cells (ATCC HTB-39) are dispensed into 384-well plates, flat and clear bottom (Greiner, PNr. 781091) at a density of 500 cells per well in 60 μL EMEM (Sigma M5650)+10% Fetal Calf Serum (HyClone, PNr.: SH30084.03) and incubated at 37° C. in a CO2 incubator overnight. The next day, compounds (10 mM stock in DMSO) are added with the ECHO acoustic liquid handler system (Beckman Coulter), including DMSO controls. Plates are incubated for 120 h, and cell viability is measured using CellTiter-Glo luminescent cell viability reagent (Promega product code G7570). Viability (stated as percent of control) is defined as relative luminescence units RLU of each well divided by the RLU of cells in DMSO controls. IC50 values are determined from viability measurements by non-linear regression using a four-parameter model.

[1] = Plasma protein binding assay (PPB), equilibrium dialysis, 10% FCS in PBS; format: in vitro ADME; settings: bovine, read-out: PPB 10% FCS (% fu)
Experimental: Binding of test compounds to plasma was determined using equilibrium dialysis (ED) and quantitative mass spectrometry interfaced with liquid chromatography (LC-MS). In brief, ED was performed with dialysis devices consisting of two chambers separated by a semipermeable membrane with a molecular weight cut-off of 5-10 kg/mol. One chamber was filled with 10% FCS in PBS containing 1-10 μmol/L test compound and the other chamber was filled with phosphate-buffer saline (PBS) with or without dextran. The dialysis chamber was incubated for 3-5 hours at 37° C. After incubation, protein was precipitated from aliquots of each chamber and the concentration of test compound in the supernatant of the plasma-containing compartment (Cserum) and of the buffer-containing compartment (Cbuffer) was determined by LC-MS. The fraction of unbound test compound (not bound to plasma) (fu) was calculated according to the following equation: […]

[2] = system: KRAS G12V-dependent Ba/F3 cells; assay: Ba/F3 proliferation assay, KRAS G12V; format: cell-based; settings: Mus musculus, BaF3, 72 h, AlamarBlue;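 also: proliferation IC50 in KRAS G12V-dependent Ba/F3 cells read by AlamarBlue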
Experimental: Plasmids containing KRASG12 mutants (i.e. […], G12C, G12V) are obtained from GeneScript. To generate KRASG12-dependent Ba/F3 models, Ba/F3 cells are transduced with retroviruses containing vectors that harbor KRASG12 isoforms. Platinum-E cells (Cell Biolabs) are used for retrovirus packaging. Retrovirus is added to Ba/F3 cells. To ensure infection, 4 μg/mL polybrene is added and cells are spinfected. […] Cells with an infection efficiency of 10% to 20% are further cultivated and puromycin selection with 1 μg/mL is initiated. As a control, parental Ba/F3 cells are used to show selection status. Selection is considered successful when parental Ba/F3 cells cultures died. To evaluate the transforming potential of KRASG12 mutations, the growth medium is no longer supplemented with IL-3. Ba/F3 cells harboring the empty vector are used as a control. Approximately ten days before conducting the experiments, puromycin is left out.
Compounds are added using an Access Labcyte Workstation with a Labcyte Echo 550 or 555 accoustic dispenser. All treatments are performed in technical duplicates. […] AlamarBlue™ (ThermoFisher), a viability stain, is added and fluorescence measured in the PerkinElmer Envision HTS Multilabel Reader. The raw data are imported into and analyzed with the Boehringer Ingelheim proprietary software MegaLab (curve fitting based on the program PRISM, GraphPad Inc.).

[3] = Caco-2 assay (permeability PappAB, PappBA, efflux ratio); format: in vitro ADME; settings: human, Caco-2, 10 μM test compound, pH 7.4; for Papp A→B at 90 min, 10 μM: apical to basolateral; for efflux ratio at 90 min, 10 μM: efflux ratio PappBA/PappAB, read-out: Caco ER
Excerpt: The assay provides information on the potential of a compound to pass the cell membrane, on the extent of oral absorption as well as on whether the compound is actively transported by uptake and/or efflux transporters. Permeability measurements across polarized, confluent Caco-2 cell monolayers grown on permeable filter supports (Corning, catalog #3391) are used. […] The receiver and donor compartments contain 0.25% bovine serum albumine (BSA) in assay buffer. Passive diffusion and/or active transport of compounds across the monolayer is measured in both apical to basolateral (a-b) and basolateral to apical (b-a) direction. a-b permeability (PappAB) represents drug absorption from the intestine into the blood and b-a permeability (PappBA) drug secretion from the blood back into the intestine via both passive permeability as well as active transport mechanisms mediated by efflux and uptake transporters that are expressed on the Caco-2 cells. After a pre-incubation of 25-30 min at 37° C., at predefined time points (0, 30, 60 and 90 min), samples were taken from the receiver and donor compartment, respectively. Concentrations of test compounds in samples were measured by HPLC/MS/MS, samples from the donor compartment were diluted 1:50 (v:v) with assay buffer, samples from receiver compartment were measured without dilution.
Apparent permeabilities in a-b (PappAB) and b-a (PappBA) directions are calculated according to the formula:
[formula] • Vrec [mL]: buffer volume in receiver compartment • Cdon [μmol/mL]: concentration of test compound in donor compartment at t=0 • ΔCrec: difference between concentrations of test compound in receiver compartment at start and end of incubation time • Δt: Incubation time • Vrec·ΔCrec/Δt [μmol/min]: Amount of compound transferred to receiver compartment per time • A [cm^2]: filter surface
Caco-2 efflux ratios (ER) are calculated as the ratio of PappBA/PappAB.

CYP3A4 = CYP3A4 (Homo sapiens (Human), UniProt P08684); assay: Mechanism based inhibition of CYP3A4 assay (MBI 3A4); format: in vitro ADME; settings: hydroxy-midazolam formation after 30 min vs 0 min preincubation, 25 uM, human liver microsomes
Chain of CYP3A4 (P08684 whole entry): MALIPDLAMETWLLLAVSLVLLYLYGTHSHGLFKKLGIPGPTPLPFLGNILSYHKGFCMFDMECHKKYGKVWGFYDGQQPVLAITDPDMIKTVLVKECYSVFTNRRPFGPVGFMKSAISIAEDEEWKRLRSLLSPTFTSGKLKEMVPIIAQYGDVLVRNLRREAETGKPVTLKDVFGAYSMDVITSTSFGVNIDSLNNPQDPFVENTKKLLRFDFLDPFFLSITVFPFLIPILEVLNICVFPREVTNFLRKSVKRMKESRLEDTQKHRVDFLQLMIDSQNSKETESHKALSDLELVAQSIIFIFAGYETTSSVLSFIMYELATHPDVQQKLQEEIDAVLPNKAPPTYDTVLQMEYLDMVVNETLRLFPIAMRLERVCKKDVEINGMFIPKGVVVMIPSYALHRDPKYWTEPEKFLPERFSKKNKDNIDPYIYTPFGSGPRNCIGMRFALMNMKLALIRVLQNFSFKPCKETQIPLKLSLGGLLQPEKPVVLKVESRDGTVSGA
Experimental: After preincubation, the incubate is diluted 1:10 and the substrate midazolam is added for the main incubation (15 min). The main incubation is quenched with acetonitrile and the formation of hydroxy-midazolam is quantified via LC/MS-MS. The formation of hydroxy-midazolam from the 30 min preincubation relative to the formation from the 0 min preincubation is used as a readout. Values of less than 100% mean that the substrate midazolam is metabolized to a lower extent upon 30 min preincubation compared to 0 min preincubation. In general low effects upon 30 min preincubation are desired (corresponding to values close to 100%/not different to the values determined with water control).

Row | IC50 (SK-CO-1 cells) | fraction unbound [1] | IC50 [2] | Papp A→B at 90 min, 10 μM [3] | MBI 3A4 (CYP3A4) | efflux ratio at 90 min, 10 μM [3] | SMILES
1 | 1490 nM | 0.36 | – | – | – | – | C[C@H]1CN(C)CCCN1c1cc(N2CCN(C)CC2)nc(-c2onc3c2CCC[C@@]32CCCc3sc(N)c(C#N)c32)n1 [I-7]
2 | 10800 nM | 0.8 | 496 nM | – | – | – | C[C@H](Oc1cc(N2CCN3CCC3C2)nc(-c2onc3c2CCC[C@@]32CCCc3sc(N)c(C#N)c32)n1)[C@@H]1CCCN1C (some centres unmarked) [I-9]
3 | – | 0.7 | 247 nM | < 2.1 ×10⁻⁶ cm/s | 72% | – | C[C@H](Oc1cc(N2CCNCC23CCOC3)nc(-c2onc3c2CCC[C@@]32CCCc3sc(N)c(C#N)c32)n1)[C@@H]1CCCN1C (some centres unmarked) [I-10]
4 | 772 nM | 0.39 | 693 nM | – | – | – | C[C@H](Oc1cc(N2CCNC[C@@]23CCOC3)nc(-c2noc3c2CCC[C@@]32CCCc3sc(N)c(C#N)c32)n1)[C@@H]1CCCN1C [II-51]
5 | 192 nM | 0.26 | 38 nM | – | – | – | C[C@H](Oc1cc(N2CCOC3(CC3)C2)nc(-c2noc3c2CCC[C@@]32CCCc3sc(N)c(C#N)c32)n1)[C@@H]1CCCN1C [II-61]
6 | 24 nM | 0.23 | 5 nM | – | – | – | C[C@H](Oc1cc(N2CCNC2=O)nc(-c2noc3c2CCC[C@@]32CCCc3sc(N)c(C#N)c32)n1)[C@@H]1CCCN1C [II-64]
7 | 360 nM | 0.03 | 40 nM | – | – | – | C[C@H](Oc1cc(-n2cnc3cccnc32)nc(-c2noc3c2CCC[C@@]32CCCc3sc(N)c(C#N)c32)n1)[C@@H]1CCCN1C [II-65]
8 | 71 nM | 0.1 | 21 nM | – | – | – | C[C@H](Oc1cc(N2CCCC3(COC3)C2)nc(-c2noc3c2CCC[C@@]32CCCc3sc(N)c(C#N)c32)n1)[C@@H]1CCCN1C [II-72]
9 | 40 nM | 0.16 | 11 nM | – | – | – | C[C@H](Oc1cc(N2CCOC3(COC3)C2)nc(-c2noc3c2CCC[C@@]32CCCc3sc(N)c(C#N)c32)n1)[C@@H]1CCCN1C [II-77]
10 | 188 nM | 0.15 | 18 nM | – | – | – | Cc1nccn1-c1cc(O[C@@H](C)[C@@H]2CCCN2C)nc(-c2noc3c2CCC[C@@]32CCCc3sc(N)c(C#N)c32)n1 [II-79]
11 | 148 nM | 0.23 | 10 nM | – | – | – | C[C@H](Oc1cc(-c2cncs2)nc(-c2noc3c2CCC[C@@]32CCCc3sc(N)c(C#N)c32)n1)[C@@H]1CCCN1C [II-80]
12 | 447 nM | 0.18 | 18 nM | – | – | – | C[C@H](Oc1cc(-c2ccn(C3COC3)n2)nc(-c2noc3c2CCC[C@@]32CCCc3sc(N)c(C#N)c32)n1)[C@@H]1C[C@H](F)CN1C [II-83]
13 | 116 nM | – | 17 nM | – | – | – | C[C@H](Oc1cc(-c2ccn(-c3ccsc3)n2)nc(-c2noc3c2CCC[C@@]32CCCc3sc(N)c(C#N)c32)n1)[C@@H]1CCCN1C [II-84]
14 | 198 nM | – | 18 nM | < 10 ×10⁻⁶ cm/s | 73% | – | C[C@H](Oc1cc(-c2ccn(-c3ccccc3)n2)nc(-c2noc3c2CCC[C@@]32CCCc3sc(N)c(C#N)c32)n1)[C@@H]1CCCN1C [II-89]
15 | 451 nM | 0.01 | 115 nM | – | – | – | C[C@H](Oc1cc(N2CCc3cccnc32)nc(-c2noc3c2CCC[C@@]32CCCc3sc(N)c(C#N)c32)n1)[C@@H]1CCCN1C [II-90]
16 | 279 nM | 0.09 | 27 nM | – | – | – | C[C@H](Oc1cc(-n2cccc3cnnc2-3)nc(-c2noc3c2CCC[C@@]32CCCc3sc(N)c(C#N)c32)n1)[C@@H]1CCCN1C [II-92]
17 | 140 nM | 0.05 | 45 nM | – | – | – | C[C@H](Oc1cc(-n2ccnc2Cl)nc(-c2noc3c2CCC[C@@]32CCCc3sc(N)c(C#N)c32)n1)[C@@H]1CCCN1C [II-93]
18 | 257 nM | 0.28 | 52 nM | – | – | – | C[C@H](Oc1cc(-c2cn(C3COC3)nn2)nc(-c2noc3c2CCC[C@@]32CCCc3sc(N)c(C#N)c32)n1)[C@@H]1CCCN1C [II-100]
19 | 257 nM | 0.23 | 28 nM | 2 ×10⁻⁶ cm/s | – | 7 | C[C@H](Oc1cc(-c2ccc(N)nc2)nc(-c2noc3c2CCC[C@@]32CCCc3sc(N)c(C#N)c32)n1)[C@@H]1CCCN1C [II-101]
20 | 37 nM | 0.04 | 4 nM | – | – | – | C[C@H](Oc1cc(-n2ccc(C#N)n2)nc(-c2noc3c2CCC[C@@]32CCCc3sc(N)c(C#N)c32)n1)[C@@H]1CCCN1C [II-102]
21 | – | 0.07 | – | – | 53% | – | Cc1nc(-c2cc(O[C@@H](C)[C@@H]3CCCN3C)nc(-c3noc4c3CCC[C@@]43CCCc4sc(N)c(C#N)c43)n2)cs1 [II-103]
22 | – | 0.18 | 12 nM | – | 78% | 4.2 | C[C@H](Oc1cc(-c2ccn3ncnc3c2)nc(-c2noc3c2CCC[C@@]32CCCc3sc(N)c(C#N)c32)n1)[C@@H]1CCCN1C [II-104]
23 | 64 nM | 0.39 | 33 nM | 1.1 ×10⁻⁶ cm/s | – | 30.9 | C[C@H](Oc1cc(-n2cc(Cn3ccnc3)nn2)nc(-c2noc3c2CCC[C@@]32CCCc3sc(N)c(C#N)c32)n1)[C@@H]1CCCN1C [II-113]
24 | – | 0.43 | 34 nM | – | – | – | C[C@H](Oc1cc(-c2cn(C3CCOCC3)nn2)nc(-c2noc3c2CCC[C@@]32CCCc3sc(N)c(C#N)c32)n1)[C@@H]1CCCN1C [II-115]
25 | 64 nM | 0.35 | 8 nM | – | – | – | C[C@H](Oc1cc(-n2ccncc2=O)nc(-c2noc3c2CCC[C@@]32CCCc3sc(N)c(C#N)c32)n1)[C@@H]1CCCN1C [II-116]
26 | 38 nM | 0.4 | 12 nM | 1 ×10⁻⁶ cm/s | – | 33.7 | C[C@H](Oc1cc(-n2cc(Cn3cncn3)nn2)nc(-c2noc3c2CCC[C@@]32CCCc3sc(N)c(C#N)c32)n1)[C@@H]1CCCN1C [II-124]
